Assay results from ChEMBL document CHEMBL4043290, “Structure-based Design of Pyridone-Aminal eFT508 Targeting Dysregulated Translation by Selective Mitogen-activated Protein Kinase Interacting Kinases 1 and 2 (MNK1/2) Inhibition” (J Med Chem, 2018).
Active and inactive are the calls of the source. No cut-off for these calls is given here.

What was measured:
[1] = target: T1, MAP kinase-interacting serine/threonine-protein kinase 1/2 (Homo sapiens, UniProt Q9HBH9+Q9BUB5); assay: Inhibition of MNK1/2 in human TMD8 cells assessed as decrease in eIF4E phosphorylation at Ser209 after 2 hrs by immunoblot method; type: cell-based
TMD8 [2] = assay: Effect on 4E-BP1 expression in human TMD8 cells after 2 hrs by immunoblot method; type: functional, cell-based
[3] = target: Eukaryotic translation initiation factor 4E-binding protein 1 (Homo sapiens) (UniProt Q13541); assay: Effect on 4E-BP1 phosphorylation at Thr37/46 in human TMD8 cells at 0.01 to 10 uM after 2 hrs by immunoblot method; type: cell-based
Sequence of Eukaryotic translation initiation factor 4E-binding protein 1 (Homo sapiens) (Q13541 whole entry): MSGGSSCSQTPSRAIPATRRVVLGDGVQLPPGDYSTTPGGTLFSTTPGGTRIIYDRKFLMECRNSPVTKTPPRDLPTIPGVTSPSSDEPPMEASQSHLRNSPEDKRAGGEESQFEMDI

Homo sapiens = species on record: Homo sapiens; assay: Effect on MAPK phosphorylation at Thr202/Tyr204 in human TMD8 cells at 0.01 to 10 uM after 2 hrs by immunoblot method; type: cell-based
[4] = target: T1, MAP kinase-interacting serine/threonine-protein kinase 1/2; assay: Inhibition of MNK1/2 in human TMD8 cells assessed as decrease in IL-6 levels after 48 hrs by ELISA; type: cell-based
[5] = target: T1, MAP kinase-interacting serine/threonine-protein kinase 1/2; assay: Inhibition of MNK1/2 in human TMD8 cells assessed as decrease in IL-8 levels after 48 hrs by ELISA; type: cell-based
[6] = target: T1, MAP kinase-interacting serine/threonine-protein kinase 1/2; assay: Inhibition of MNK1/2 in human TMD8 cells assessed as decrease in TNF-alpha levels after 48 hrs by ELISA; type: cell-based
[7] = target: T1, MAP kinase-interacting serine/threonine-protein kinase 1/2; assay: Inhibition of MNK1/2 in human TMD8 cells assessed as decrease in TNF-alpha mRNA half life at 10 uM incubated for 24 hrs by TaqMan assay relative to control; type: cell-based
[8] = target: T1, MAP kinase-interacting serine/threonine-protein kinase 1/2; assay: Inhibition of MNK1/2 in human TMD8 cells assessed as decrease in IL-6 mRNA half life at 10 uM incubated for 24 hrs by TaqMan assay relative to control; type: cell-based
[9] = target: T1, MAP kinase-interacting serine/threonine-protein kinase 1/2; assay: Inhibition of MNK1/2 in human TMD8 cells assessed as decrease in IL-8 mRNA half life at 10 uM incubated for 24 hrs by TaqMan assay relative to control; type: cell-based
[10] = Metabolic stability in mouse liver microsomes assessed as parent compound remaining at 1 uM after 30 mins by LC-ESI-TOF/MS method; type: ADME, microsome; details: read-out: Stability
[11] = Metabolic stability in rat liver microsomes assessed as parent compound remaining at 1 uM after 30 mins by LC-ESI-TOF/MS method; type: ADME, microsome; details: read-out: Stability
[12] = Metabolic stability in human liver microsomes assessed as parent compound remaining at 1 uM after 30 mins by LC-ESI-TOF/MS method; type: ADME, microsome; details: read-out: Stability
[13] = Oral bioavailability in Balb/c mouse at 10 mg/kg by LC-ESI-TOF/MS or LC-ESI-MS/MS method; type: ADME, organism-based; details: in vivo
[14] = Oral bioavailability in Sprague-Dawley rat at 10 mg/kg by LC-ESI-TOF/MS or LC-ESI-MS/MS method; type: ADME, organism-based; details: in vivo
[15] = Oral bioavailability in Beagle dog at 3 mg/kg by LC-ESI-TOF/MS or LC-ESI-MS/MS method; type: ADME, organism-based, Canis lupus familiaris; details: in vivo
[16] = Oral bioavailability in cynomolgus monkey at 3 mg/kg by LC-ESI-TOF/MS or LC-ESI-MS/MS method; type: ADME, organism-based, Macaca fascicularis; details: in vivo
[17] = target: Serine/threonine-protein kinase 17A (Homo sapiens, UniProt Q9UEE5); assay: Inhibition of DRAK1 (unknown origin)
Sequence of Serine/threonine-protein kinase 17A (Q9UEE5 whole entry): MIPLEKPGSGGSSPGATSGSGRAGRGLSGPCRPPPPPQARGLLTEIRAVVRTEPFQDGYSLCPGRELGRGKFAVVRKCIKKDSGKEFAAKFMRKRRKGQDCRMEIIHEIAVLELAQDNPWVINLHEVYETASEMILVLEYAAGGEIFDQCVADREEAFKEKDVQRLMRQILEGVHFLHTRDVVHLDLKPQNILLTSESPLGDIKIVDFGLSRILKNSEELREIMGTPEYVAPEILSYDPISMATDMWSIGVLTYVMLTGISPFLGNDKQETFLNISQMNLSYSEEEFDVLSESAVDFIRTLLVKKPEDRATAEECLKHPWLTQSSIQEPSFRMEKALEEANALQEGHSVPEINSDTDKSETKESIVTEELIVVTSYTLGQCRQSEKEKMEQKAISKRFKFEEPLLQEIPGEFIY

[18] = target: Dual specificity protein kinase CLK4 (Homo sapiens, UniProt Q9HAZ1); assay: Inhibition of CLK4 (unknown origin)
Sequence of Dual specificity protein kinase CLK4 (Q9HAZ1 whole entry): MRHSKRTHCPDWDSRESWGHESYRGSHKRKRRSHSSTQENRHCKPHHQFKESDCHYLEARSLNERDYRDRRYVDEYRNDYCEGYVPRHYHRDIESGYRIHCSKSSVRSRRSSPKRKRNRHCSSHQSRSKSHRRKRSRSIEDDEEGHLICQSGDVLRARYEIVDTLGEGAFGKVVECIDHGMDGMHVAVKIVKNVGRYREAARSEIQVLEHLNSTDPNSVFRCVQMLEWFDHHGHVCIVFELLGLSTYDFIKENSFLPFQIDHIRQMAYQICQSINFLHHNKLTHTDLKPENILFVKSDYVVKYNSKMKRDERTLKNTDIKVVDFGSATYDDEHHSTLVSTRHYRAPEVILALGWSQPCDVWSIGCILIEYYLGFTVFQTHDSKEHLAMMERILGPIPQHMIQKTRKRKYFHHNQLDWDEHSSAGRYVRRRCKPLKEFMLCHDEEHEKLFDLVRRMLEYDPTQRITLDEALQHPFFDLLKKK

[19] = Antiproliferative activity against human ALCL cells after 72 hrs by CellTiter-Glo assay; type: functional, cell-based
[20] = Antiproliferative activity against human AML cells after 72 hrs by CellTiter-Glo assay; type: functional, cell-based
[21] = Antiproliferative activity against human B-ALL cells after 72 hrs by CellTiter-Glo assay; type: functional, cell-based
[22] = Antiproliferative activity against human B-PLL cells after 72 hrs by CellTiter-Glo assay; type: functional, cell-based
[23] = Antiproliferative activity against human Burkitt lymphoma cells after 72 hrs by CellTiter-Glo assay; type: functional, cell-based; details: Burkitt lymphoma cell
[24] = Antiproliferative activity against human CML cells after 72 hrs by CellTiter-Glo assay; type: functional, cell-based
[25] = Antiproliferative activity against human DLBCL cells after 72 hrs by CellTiter-Glo assay; type: functional, cell-based
[26] = Antiproliferative activity against human MCL cells after 72 hrs by CellTiter-Glo assay; type: functional, cell-based
[27] = Antiproliferative activity against human multiple myeloma cells after 72 hrs by CellTiter-Glo assay; type: functional, cell-based; details: Multiple myeloma cell
[28] = Antiproliferative activity against human T-ALL cells after 72 hrs by CellTiter-Glo assay; type: functional, cell-based
Mus musculus [29] = assay: Toxicity in NOD SCID mouse xenografted with human TMD8 cells assessed as body weight loss at 1 to 10 mg/kg, po qd administered for 14 days measured twice a week during compound dosing; type: organism-based; details: in vivo, 336 h
Mus musculus [30] = assay: Toxicity in NOD SCID mouse xenografted with human HBL1 cells assessed as body weight loss at 1 to 10 mg/kg, po qd administered for 12 days measured twice a week during compound dosing; type: organism-based; details: in vivo, 288 h
Mus musculus [31] = assay: Toxicity in NCr nu/nu mouse xenografted with human MDA-MB-231 cells assessed as body weight loss at 1 to 10 mg/kg, po qd administered for 23 days measured twice a week during compound dosing; type: organism-based; details: in vivo, 552 h
TMD8 [32] = assay: Antitumor activity against human TMD8 cells xenografted in NOD SCID mouse assessed as tumor growth inhibition at 1 mg/kg, po qd administered for 14 days relative to control; type: functional; details: 336 h, read-out: TGI
[33] = Antitumor activity against human HBL1 cells xenografted in NOD SCID mouse assessed as tumor growth inhibition at 1 mg/kg, po qd administered for 12 days relative to control; type: functional; details: 288 h, read-out: TGI
[34] = Antitumor activity against human HBL1 cells xenografted in NOD SCID mouse assessed as tumor growth inhibition at 10 mg/kg, po qd administered for 12 days relative to control; type: functional; details: 288 h, read-out: TGI
TMD8 [35] = assay: Antitumor activity against human TMD8 cells xenografted in NOD SCID mouse assessed as tumor growth inhibition at 10 mg/kg, po qd administered for 14 days relative to control; type: functional; details: 336 h, read-out: TGI
MDA-MB-231 [36] = assay: Antitumor activity against human MDA-MB-231 cells xenografted in NCr nu/nu mouse assessed as tumor growth inhibition at 1 to 10 mg/kg, po qd administered for 23 days relative to control; type: functional
MDA-MB-231 [37] = assay: Growth inhibition of human MDA-MB-231 cells after 72 hrs by CellTiter-Glo assay; type: functional, cell-based
Mus musculus [38] = assay: In vivo inhibition of MNK1/2 in human TMD8 cells xenografted in NOD SCID mouse assessed as reduction in eIF4E phosphorylation at Ser209 at 1 mg/kg, po qd administered for 14 days measured over 8 hrs post last dose by Western blot method relative to control; type: functional
Mus musculus [39] = assay: In vivo inhibition of MNK1/2 in human TMD8 cells xenografted in NOD SCID mouse assessed as reduction in eIF4E phosphorylation at Ser209 administered as po qd for 14 days measured over 24 hrs post last dose by Western blot method; type: functional, organism-based
[40] = Therapeutic index, ratio of tumor growth inhibition of human TMD8 cells xenografted in NOD SCID mouse to body weight loss in NOD SCID mouse xenografted with human TMD8 cells
[41] = Therapeutic index, ratio of tumor growth inhibition of human HBL1 cells xenografted in NOD SCID mouse to body weight loss in NOD SCID mouse xenografted with human HBL1 cells
[42] = Therapeutic index, ratio of tumor growth inhibition of human MDA-MB-231 cells xenografted in NCr nu/nu mouse to body weight loss in NCr nu/nu mouse xenografted with human MDA-MB-231 cells
[43] = Protein binding in mouse plasma; type: ADME, cell-free; details: read-out: PPB
[44] = Protein binding in rat plasma; type: ADME, cell-free; details: read-out: PPB
[45] = Protein binding in dog plasma; type: ADME, cell-free, Canis lupus familiaris; details: read-out: PPB
[46] = Protein binding in monkey plasma; type: ADME, cell-free, Macaca mulatta; details: rhesus monkey, read-out: PPB
[47] = Protein binding in human plasma; type: ADME, cell-free; details: read-out: PPB
physchem = details: octanol/water
in vitro = details: human, Caco-2

Compound: Cc1cc(Nc2cc(N)ncn2)c(=O)n2c1C(=O)NC21CCCCC1 [TOMIVOSERTIB]
- inhibition [1]: Dose-dependent effect
- Activity (TMD8 [2]): inactive
- Activity [3]: inactive
- Activity (Homo sapiens): inactive
- inhibition [4]: Dose-dependent effect
- inhibition [5]: Dose-dependent effect
- inhibition [6]: Dose-dependent effect
- fold change (FC) [7]: 1.5 to 2
- fold change (FC) [8]: 1.5 to 2
- fold change (FC) [9]: 1.5 to 2
- remaining at 0.5 h, 1 µM [10]: 90%
- remaining at 0.5 h, 1 µM [11]: 93%
- remaining at 0.5 h, 1 µM [12]: 87%
- bioavailability [13]: 79%
- bioavailability [14]: 85%
- bioavailability [15]: > 100%
- bioavailability [16]: 24%
- IC50 [17]: 0.131 µM
- IC50 [18]: 0.787 µM
- IC50 [19]: > 30 µM
- IC50 [20]: > 30 µM
- IC50 [21]: > 30 µM
- IC50 [22]: > 30 µM
- IC50 [23]: > 30 µM
- IC50 [24]: > 30 µM
- IC50 [25]: < 10 µM
- IC50 [26]: > 30 µM
- IC50 [27]: < 10 µM
- IC50 [28]: > 30 µM
- Activity (Mus musculus [29]): Non-Toxic
- Activity (Mus musculus [30]): Non-Toxic
- Activity (Mus musculus [31]): Non-Toxic
- inhibition in vivo at 1 mg/kg (TMD8 [32]): 71%
- inhibition in vivo at 1 mg/kg [33]: 66%
- inhibition in vivo at 10 mg/kg [34]: 96%
- inhibition in vivo at 10 mg/kg (TMD8 [35]): 75%
- TGI (MDA-MB-231 [36]): >100%
- growth inhibition (GI) (MDA-MB-231 [37]): inactive
- inhibition in vivo at 1 mg/kg (Mus musculus [38]): 80%
- IC90 (Mus musculus [39]): 0.376 µM
- IC50 (Mus musculus [39]; Mus musculus, TMD8): 0.0158 µM
- TI [40]: >=10
- TI [41]: >=10
- TI [42]: >=10
- fraction unbound [43]: 0.5
- fraction unbound [44]: 0.5
- fraction unbound [45]: 0.5
- fraction unbound [46]: 0.5
- fraction unbound [47]: 0.5
- logP (physchem): 2.7
- Papp A→B at 2 h, 5 µM (in vitro): 7.1 ×10⁻⁶ cm/s
